Measured values from EP1561465A2, “Methods of use of fluoroquinolone compounds against bacteria” (LG Life Sciences, Ltd., priority 1999, dated 2001).
In brackets after ≈: the same amount, converted by molar mass. Read-outs that look alike come from different tables or passages of the source.

What was measured:
Assay type in all cases: cell-based
[1] = tested on: Aeromonas spp.; test: MIC by agar dilution (NCCLS M7-A4), 288 enteropathogenic isolates, gemifloxacin and 15 other antimicrobials; conditions: Aeromonas spp. N= 16
[2] = tested on: Streptococcus pneumoniae; test: MIC by broth microdilution (NCCLS), dried MicroScan panels, clinical isolates 1998-1999; conditions: for MIC90: Streptococcus pneumoniae
[3] = tested on: Acinetobacter spp.; test: MIC by agar dilution (NCCLS), 322 nosocomial Gram negative isolates, Athens 1998; conditions: n = 38 strains
[4] = tested on: Yersinia enterocolitica; test: MIC by agar dilution (NCCLS M7-A4), 288 enteropathogenic isolates, gemifloxacin and 15 other antimicrobials; conditions: Yersinia enterocolitica N= 22
[5] = tested on: Pseudomonas aeruginosa; test: MIC by agar dilution (NCCLS), 322 nosocomial Gram negative isolates, Athens 1998; conditions: n = 57 isolates
[6] = tested on: Hafnia alvei; test: MIC by agar dilution (NCCLS M7-A4), 288 enteropathogenic isolates, gemifloxacin and 15 other antimicrobials; conditions: Hafnia alvei N= 32
[7] = tested on: Moraxella catarrhalis; test: MIC by agar dilution (NCCLS), 411 isolates Buenos Aires 1998-99
[8] = tested on: Shigella spp.; test: MIC by agar dilution (NCCLS M7-A4), 288 enteropathogenic isolates, gemifloxacin and 15 other antimicrobials; conditions: Shigella spp. N= 21
Summary of the method: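 Agar dilution with ~10^4 cfu/spot inoculum; plates incubated aerobically at 35 °C for 24 h, except C. jejuni, held microaerophilically for 48 h. MIC taken as lowest antibiotic concentration with no visible growth.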

[9] = tested on: Haemophilus influenzae; test: MIC by broth microdilution (NCCLS), dried MicroScan panels, clinical isolates 1998-1999; conditions: for MIC90: Haemophilus influenzae
[10] = tested on: Haemophilus influenzae; test: MIC by NCCLS reference broth microdilution, 450 respiratory tract pathogens; conditions: Haemophilus influenzae; for MIC90: read-out: MIC90
[11] = tested on: Staphylococcus epidermidis; test: MIC by NCCLS broth microdilution, 1100 Japanese clinical isolates 1997-1998; conditions: for MIC50 / MIC90: Staphylococcus epidermidis
[12] = tested on: Streptococcus pneumoniae; test: MIC by NCCLS reference broth microdilution, 450 respiratory tract pathogens; conditions: Streptococcus pneumoniae
[13] = tested on: Staphylococcus aureus; test: microbe, parasite or virus in culture
[14] = tested on: Citrobacter freundii; test: MIC by NCCLS broth microdilution, 1100 Japanese clinical isolates 1997-1998
[15] = Streptococcus pneumoniae (302 isolates)
[16] = 24 h, read-out: MIC (mg/L) Range
[17] = Haemophilus influenzae (300 isolates)
[18] = Haemophilus influenzae (n = 100)
[19] = Staphylococcus epidermidis oxacillin resistant (n=43)
[20] = Staphylococcus epidermidis oxacillin susceptible (n=35)
[21] = Streptococcus pneumoniae (n = 100)
[22] = erythromycin resistant M phenotype (n = 16)
[23] = erythromycin resistant MLSB phenotype (n = 16)
[24] = penicillin intermediate (n = 16)
[25] = penicillin susceptible (n = 20)

CC1COc2c(N3CCN(C)CC3)c(F)cc3c(=O)c(C(=O)O)cn1c23 (stereo not shown) [Ofloxacin, ofloxacin]
MIC (mg/L) Range [1]: ≤0.015 to 0.12 mg/L | MIC ([1]; read-out: MIC (mg/L) 50%): ≤ 0.015 mg/L | MIC ([1]; read-out: MIC (mg/L) 90%): 0.03 mg/L (≈ 0.083 µM) | MIC50 [2, 15]: 2 µg/mL (≈ 5.53 µM) | MIC Range [2, 15]: ≤0.06 to 4 µg/mL | MIC90 ([2]; Erythromycin-resistant (86)): 2 µg/mL (≈ 5.53 µM) | MIC90 ([2]; Erythromycin-sensitive (216)): 4 µg/mL (≈ 11.1 µM) | MIC90 ([2]; Penicillin-intermediate (124)): 4 µg/mL (≈ 11.1 µM) | MIC90 ([2]; Penicillin-resistant (80)): 2 µg/mL (≈ 5.53 µM) | MIC90 ([2]; Penicillin-sensitive (98)): 2 µg/mL (≈ 5.53 µM) | MIC90 [2, 15]: 4 µg/mL (≈ 11.1 µM) | MIC50 ([3]; Acinetobacter): 8 µg/mL (≈ 22.1 µM) | MIC90 ([3]; Acinetobacter): 64 µg/mL (≈ 177 µM) | MIC Range [3]: 0.125 to 64 µg/mL | MIC [4, 16]: 0.03 to 0.5 mg/L (≈ 0.083 to 1.38 µM) | MIC ([4]; read-out: MIC (mg/L) 50%): 0.12 mg/L (≈ 0.332 µM) | MIC ([4]; read-out: MIC (mg/L) 90%): 0.12 mg/L (≈ 0.332 µM) | MIC50 [5]: 2 µg/mL (≈ 5.53 µM) | MIC90 [5]: > 64 µg/mL | MIC [6, 16]: 0.03 mg/L (≈ 0.083 µM) | MIC ([6]; read-out: MIC (mg/L) 50%): 0.03 mg/L (≈ 0.083 µM) | MIC ([6]; read-out: MIC (mg/L) 90%): 0.03 mg/L (≈ 0.083 µM) | MIC90 ([7]; Moraxella catarrhalis): 0.125 µg/mL (≈ 0.346 µM) | MIC Range ([7]; Moraxella catarrhalis (n = 59)): 0.06 to 0.125 µg/mL | MIC [8, 16]: 0.015 to 0.06 mg/L (≈ 0.0415 to 0.166 µM) | MIC ([8]; read-out: MIC (mg/L) 50%): 0.03 mg/L (≈ 0.083 µM) | MIC ([8]; read-out: MIC (mg/L) 90%): 0.06 mg/L (≈ 0.166 µM) | MIC50 [9, 17]: ≤ 0.06 µg/mL | MIC Range [9, 17]: ≤0.06 to 0.5 µg/mL | MIC90 [9, 17]: ≤ 0.06 µg/mL | MIC90 ([9]; β-lactamase negative (234)): ≤ 0.06 µg/mL | MIC90 ([9]; β-lactamase positive (66)): 0.12 µg/mL (≈ 0.332 µM)

C[C@H]1COc2c(N3CCN(C)CC3)c(F)cc3c(=O)c(C(=O)O)cn1c23 [Levofloxacin, levofloxacin]
MIC (mg/L) Range [1]: ≤0.015 to 0.06 mg/L | MIC ([1]; read-out: MIC (mg/L) 50%): ≤ 0.015 mg/L | MIC ([1]; read-out: MIC (mg/L) 90%): ≤ 0.015 mg/L | MIC50 [2, 15]: 1 µg/mL (≈ 2.77 µM) | MIC Range [2, 15]: ≤0.015 to 2 µg/mL | MIC90 ([2]; Erythromycin-resistant (86)): 1 µg/mL (≈ 2.77 µM) | MIC90 ([2]; Erythromycin-sensitive (216)): 2 µg/mL (≈ 5.53 µM) | MIC90 ([2]; Penicillin-intermediate (124)): 1 µg/mL (≈ 2.77 µM) | MIC90 ([2]; Penicillin-resistant (80)): 1 µg/mL (≈ 2.77 µM) | MIC90 ([2]; Penicillin-sensitive (98)): 1 µg/mL (≈ 2.77 µM) | MIC90 [2, 15]: 1 µg/mL (≈ 2.77 µM) | MIC [10, 18]: 0.0075 to 0.5 µg/mL (≈ 0.0208 to 1.38 µM) | MIC50 [10, 18]: 0.015 µg/mL (≈ 0.0415 µM) | MIC90 [10, 18]: 0.03 µg/mL (≈ 0.083 µM) | MIC ([10]; β-lactamase negative (n = 80)): 0.0075 to 0.5 µg/mL (≈ 0.0208 to 1.38 µM) | MIC50 ([10]; β-lactamase negative (n = 80)): 0.015 µg/mL (≈ 0.0415 µM) | MIC90 ([10]; β-lactamase negative (n = 80)): 0.015 µg/mL (≈ 0.0415 µM) | MIC ([10]; β-lactamase positive (n = 20)): 0.0075 to 0.03 µg/mL (≈ 0.0208 to 0.083 µM) | MIC50 ([10]; β-lactamase positive (n = 20)): 0.015 µg/mL (≈ 0.0415 µM) | MIC90 ([10]; β-lactamase positive (n = 20)): 0.03 µg/mL (≈ 0.083 µM) | MIC [4, 16]: 0.03 to 0.5 mg/L (≈ 0.083 to 1.38 µM) | MIC ([4]; read-out: MIC (mg/L) 50%): 0.06 mg/L (≈ 0.166 µM) | MIC ([4]; read-out: MIC (mg/L) 90%): 0.06 mg/L (≈ 0.166 µM) | MIC Range [11, 19]: 0.25 to 16 µg/mL | MIC Range [11, 20]: 0.063 to 8 µg/mL | MIC50 [11, 19]: 4 µg/mL (≈ 11.1 µM) | MIC90 [11, 19]: 8 µg/mL (≈ 22.1 µM) | MIC50 [11, 20]: 0.25 µg/mL (≈ 0.692 µM) | MIC90 [11, 20]: 4 µg/mL (≈ 11.1 µM) | MIC [12, 21]: 0.25 to 2 µg/mL (≈ 0.692 to 5.53 µM) | MIC50 [12, 21]: 1 µg/mL (≈ 2.77 µM) | MIC90 [12, 21]: 1 µg/mL (≈ 2.77 µM) | MIC [12, 22]: 1 to 2 µg/mL (≈ 2.77 to 5.53 µM) | MIC50 [12, 22]: 1 µg/mL (≈ 2.77 µM) | MIC90 [12, 22]: 1 µg/mL (≈ 2.77 µM) | MIC [12, 23]: 0.5 to 2 µg/mL (≈ 1.38 to 5.53 µM) | MIC50 [12, 23]: 1 µg/mL (≈ 2.77 µM) | MIC90 [12, 23]: 1 µg/mL (≈ 2.77 µM) | MIC ([12]; multi-drug resistant (n = 16)): 0.5 to 1 µg/mL (≈ 1.38 to 2.77 µM) | MIC50 ([12]; multi-drug resistant (n = 16)): 1 µg/mL (≈ 2.77 µM) | MIC90 ([12]; multi-drug resistant (n = 16)): 1 µg/mL (≈ 2.77 µM) | MIC [12, 24]: 0.5 to 1 µg/mL (≈ 1.38 to 2.77 µM) | MIC50 [12, 24]: 1 µg/mL (≈ 2.77 µM) | MIC90 [12, 24]: 1 µg/mL (≈ 2.77 µM) | MIC ([12]; penicillin resistant (n = 18)): 0.5 to 2 µg/mL (≈ 1.38 to 5.53 µM) | MIC50 ([12]; penicillin resistant (n = 18)): 0.5 µg/mL (≈ 1.38 µM) | MIC90 ([12]; penicillin resistant (n = 18)): 1 µg/mL (≈ 2.77 µM) | MIC [12, 25]: 0.25 to 1 µg/mL (≈ 0.692 to 2.77 µM) | MIC50 [12, 25]: 1 µg/mL (≈ 2.77 µM) | MIC90 [12, 25]: 1 µg/mL (≈ 2.77 µM) | MIC Range ([13]; Methicillin-resistant (38)): 0.25 to 128 µg/mL | MIC Range ([13]; Methicillin-susceptible (9)): 0.125 to 1 µg/mL | MIC50 ([13]; Staphylococcus aureus, Methicillin-resistant (38)): 8 µg/mL (≈ 22.1 µM) | MIC90 ([13]; Staphylococcus aureus, Methicillin-susceptible (9), read-out: MIC90): 1 µg/mL (≈ 2.77 µM) | MIC ([13]; Staphylococcus aureus, S. aureus KU2240, mutant type Wild (wild strain)): 0.25 µg/mL (≈ 0.692 µM) | MIC ([13]; Staphylococcus aureus, S. aureus KU2243, mutant type G+T (DNA gyrase and topoisomerase IV)): > 128 µg/mL | MIC ([13]; Staphylococcus aureus, S. aureus KU2245, mutant type G+T (DNA gyrase and topoisomerase IV)): 32 µg/mL (≈ 88.6 µM) | MIC ([13]; Staphylococcus aureus, S. aureus KU2246, mutant type T (DNA topoisomerase IV)): 1 µg/mL (≈ 2.77 µM) | MIC [6, 16]: 0.015 to 0.03 mg/L (≈ 0.0415 to 0.083 µM) | MIC ([6]; read-out: MIC (mg/L) 50%): 0.03 mg/L (≈ 0.083 µM) | MIC ([6]; read-out: MIC (mg/L) 90%): 0.03 mg/L (≈ 0.083 µM) | MIC Range ([7]; Moraxella catarrhalis (n = 59)): ≤0.004 to 0.03 µg/mL | MIC90 ([7]; Moraxella catarrhalis (n = 59), read-out: MIC90): 0.03 µg/mL (≈ 0.083 µM) | MIC [8, 16]: 0.015 to 0.03 mg/L (≈ 0.0415 to 0.083 µM) | MIC ([8]; read-out: MIC (mg/L) 50%): 0.03 mg/L (≈ 0.083 µM) | MIC ([8]; read-out: MIC (mg/L) 90%): 0.03 mg/L (≈ 0.083 µM) | MIC50 [9, 17]: ≤ 0.015 µg/mL | MIC Range [9, 17]: ≤0.015 to 0.5 µg/mL | MIC90 [9, 17]: 0.03 µg/mL (≈ 0.083 µM) | MIC90 ([9]; β-lactamase negative (234)): 0.03 µg/mL (≈ 0.083 µM) | MIC90 ([9]; β-lactamase positive (66)): 0.03 µg/mL (≈ 0.083 µM) | MIC50 ([14]; Citrobacter freundii): 0.125 µg/mL (≈ 0.346 µM) | MIC90 ([14]; Citrobacter freundii (n=39)): 1 µg/mL (≈ 2.77 µM) | MIC Range ([14]; Citrobacter freundii (n=39)): 0.016 to 1 µg/mL
